Results reported in patent US12371426B2, “Pyridazine derivatives as SMARCA2/4 degraders” (Aurigene Discovery Technologies Limited, priority 2018, dated 2025).

Target: SMARCA2 (Homo sapiens, UniProt P51531)
Assay: SMARCA2 degradation in NCI-H838 cells by Western blot
Type: cell-based
Design: endogenous in cells; host or cells: NCI-H838 (ATCC CRL-5844)
Settings: 16 hours
Protocol: Determination of SMARCA2 Degradation in NCI-1H838 Cells by Western Blot:
NCI-1H838 (ATCC CRL-5844) was plated in 6 well plates using complete RPMI-1640 media. Next day, compounds of present invention were added to cells from 10 mM stocks made in DMSO (Sigma Cat no. D2650). Each concentration of compound was tested with DMSO concentration not exceeding a final percentage of 0.3 in the cells. Cells were incubated with the compound for 16 hours followed by harvesting with 1× RIPA lysis buffer (Thermo Fischer, catalogue number #89900) containing protease inhibitor cocktail (Sigma catalogue number #P-8340). Equal amount of protein was loaded on SIDS PAGE gel for electrophoresis. Western blot was carried out for detection of SMARCA2 with antibody (Cell signaling technologies, catalogue number #11966). Beta Actin (Santa Cruz, catalogue number #69879) was used as loading control. Percentage of SMARCA2 degradation was calculated using formula % degradation=100−(normalized band intensity in treated sample/normalized band intensity in DMSO sample)*100”.
Selected compounds of the present invention were screened in the above mentioned assay procedures for determination of % SMARCA2 degradation at 100 nM and the results are summarized in below table 31.

Sequence of SMARCA2 (P51531 whole entry): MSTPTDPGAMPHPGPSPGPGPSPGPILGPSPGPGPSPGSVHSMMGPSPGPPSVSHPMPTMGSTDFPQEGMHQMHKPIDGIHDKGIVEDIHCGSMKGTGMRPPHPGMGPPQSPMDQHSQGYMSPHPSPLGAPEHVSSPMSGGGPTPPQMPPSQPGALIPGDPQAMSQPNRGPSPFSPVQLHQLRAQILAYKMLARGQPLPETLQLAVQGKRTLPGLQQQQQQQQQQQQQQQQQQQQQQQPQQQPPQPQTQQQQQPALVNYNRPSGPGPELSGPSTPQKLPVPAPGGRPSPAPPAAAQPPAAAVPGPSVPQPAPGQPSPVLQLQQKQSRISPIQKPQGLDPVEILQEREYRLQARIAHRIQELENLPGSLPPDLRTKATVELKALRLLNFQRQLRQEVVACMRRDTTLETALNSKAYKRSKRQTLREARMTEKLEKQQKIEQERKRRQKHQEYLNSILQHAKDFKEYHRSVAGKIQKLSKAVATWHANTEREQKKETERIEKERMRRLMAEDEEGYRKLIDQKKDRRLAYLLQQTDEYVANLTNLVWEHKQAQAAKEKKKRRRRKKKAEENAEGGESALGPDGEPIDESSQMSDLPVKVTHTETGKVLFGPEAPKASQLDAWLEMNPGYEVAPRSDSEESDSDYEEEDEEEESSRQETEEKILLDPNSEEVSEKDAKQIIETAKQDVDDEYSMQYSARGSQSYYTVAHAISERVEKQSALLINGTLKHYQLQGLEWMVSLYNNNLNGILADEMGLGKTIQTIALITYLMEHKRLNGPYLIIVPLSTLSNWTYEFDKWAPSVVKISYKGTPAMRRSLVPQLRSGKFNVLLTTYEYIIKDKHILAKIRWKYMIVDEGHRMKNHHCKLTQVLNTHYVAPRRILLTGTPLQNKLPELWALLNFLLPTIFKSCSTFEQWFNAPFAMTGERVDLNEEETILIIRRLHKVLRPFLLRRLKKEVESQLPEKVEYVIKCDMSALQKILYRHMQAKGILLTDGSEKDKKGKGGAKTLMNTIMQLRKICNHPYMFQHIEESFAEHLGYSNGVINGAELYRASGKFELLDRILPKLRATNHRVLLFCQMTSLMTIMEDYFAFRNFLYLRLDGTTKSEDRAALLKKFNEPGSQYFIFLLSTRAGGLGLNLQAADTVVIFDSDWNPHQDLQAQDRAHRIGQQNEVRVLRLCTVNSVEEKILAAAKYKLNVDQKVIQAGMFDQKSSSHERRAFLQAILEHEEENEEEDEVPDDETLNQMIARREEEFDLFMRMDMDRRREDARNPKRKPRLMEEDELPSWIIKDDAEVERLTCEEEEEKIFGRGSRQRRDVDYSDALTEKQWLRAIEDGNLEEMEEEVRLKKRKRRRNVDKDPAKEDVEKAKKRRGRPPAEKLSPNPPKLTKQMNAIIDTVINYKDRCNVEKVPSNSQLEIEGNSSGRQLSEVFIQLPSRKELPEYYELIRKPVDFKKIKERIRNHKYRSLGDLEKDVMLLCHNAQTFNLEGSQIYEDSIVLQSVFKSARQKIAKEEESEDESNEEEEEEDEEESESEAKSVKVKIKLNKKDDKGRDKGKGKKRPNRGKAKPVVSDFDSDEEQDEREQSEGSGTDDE

Compound | SMARCA2 @ 100 nM (% SMARCA2 degradation) [%]
Cc1ncsc1-c1ccc(C(NC(=O)[C@@H]2C[C@@H](O)CN2C(=O)[C@@H](NC(=O)CC2CCN(c3cc(-c4cccc(F)c4O)nnc3N)CC2)C(C)(C)C)C(F)(F)F)cc1 (single isomer, unassigned) [Compound 77] | 9
Cc1ncsc1-c1ccc(C(NC(=O)[C@@H]2C[C@@H](O)CN2C(=O)[C@@H](NC(=O)CC2CCN(c3cc(-c4cccc(F)c4O)nnc3N)CC2)C(C)(C)C)C(F)(F)F)cc1 (single isomer, unassigned) [Compound 78] | 26
Cc1ncsc1-c1ccc([C@H](C)NC(=O)[C@@H]2C[C@@H](O)CN2C(=O)[C@@H](NC(=O)Cn2cc(-c3cc(-c4cccc(F)c4O)nnc3N)cn2)C(C)(C)C)cc1 [Compound 62, (2S,4R)-1-((S)-2-(2-(4-(3-amino-6-(3-fluoro-2-hydroxyphenyl)pyridazin-4-yl)-1H-pyrazol-1-yl)acetamido)-3,3-dimethylbutanoyl)-4-hydroxy-N—((S)-1-(4-(4-methylthiazol-5-yl)phenyl)ethyl)pyrrolidine-2-carboxamide] | 27
Cc1ncsc1-c1ccc([C@H](C)NC(=O)[C@@H]2C[C@@H](O)CN2C(=O)[C@@H](NC(=O)CN2CCN(c3cc(C(N)=O)nnc3N)CC2)C(C)(C)C)cc1 [Compound 74, 6-amino-5-(4-(2-(((S)-1-((2S,4R)-4-hydroxy-2-(((S)-1-(4-(4-methylthiazol-5-yl)phenyl)ethyl)carbamoyl)pyrrolidin-1-yl)-3,3-dimethyl-1-oxobutan-2-yl)amino)-2-oxoethyl)piperazin-1-yl)pyridazine-3-carboxamide] | 21
CNC(=O)c1cc(N2CCN(CC(=O)N[C@H](C(=O)N3C[C@H](O)C[C@H]3C(=O)N[C@@H](C)c3ccc(-c4scnc4C)cc3)C(C)(C)C)CC2)c(N)nn1 [Compound 75, 6-amino-5-(4-(2-(((S)-1-((2S,4R)-4-hydroxy-2-(((S)-1-(4-(4-methylthiazol-5-yl)phenyl)ethyl)carbamoyl)pyrrolidin-1-yl)-3,3-dimethyl-1-oxobutan-2-yl)amino)-2-oxoethyl)piperazin-1-yl)-N-methylpyridazine-3-carboxamide] | 12
Cc1ncsc1-c1ccc([C@H](C)NC(=O)[C@@H]2C[C@@H](O)CN2C(=O)[C@@H](NC(=O)OC2CCN(c3cc(-c4ccccc4O)nnc3N)CC2)C(C)(C)C)cc1 [Compound 80] | 13
Cc1ncsc1-c1ccc([C@H](C)NC(=O)[C@@H]2C[C@@H](O)CN2C(=O)[C@@H](NC(=O)CC2CCN(c3cc(-c4cc(F)ccc4F)nnc3N)CC2)C(C)(C)C)cc1 [Compound 100] | 9

The remaining lines, values ahead:

SMARCA2 @ 100 nM (% SMARCA2 degradation) [%] | Compound
94 | Cc1ncsc1-c1ccc([C@H](C)NC(=O)[C@@H]2C[C@@H](O)CN2C(=O)[C@@H](NC(=O)CN2CCN(c3cc(-c4ccccc4O)nnc3N)CC2)C(C)(C)C)cc1.Cl [Compound 65, (2S,4R)-1-((S)-2-(2-(4-(3-amino-6-(2-hydroxyphenyl)pyridazin-4-yl)piperazin-1-yl)acetamido)-3,3-dimethylbutanoyl)-4-hydroxy-N—((S)-1-(4-(4-methylthiazol-5-yl)phenyl)ethyl)pyrrolidine-2-carboxamide hydrochloride]
12 | Nc1nnc(-c2ccccc2O)cc1N1CCN(CCC(=O)Nc2cccc3c2C(=O)N(C2CCC(=O)NC2=O)C3=O)CC1 (stereo not shown) [Compound 69]
-11 | Nc1nnc(-c2ccccc2O)cc1N1CCN(CCCC(=O)Nc2cccc3c2C(=O)N(C2CCC(=O)NC2=O)C3=O)CC1 (stereo not shown) [Compound 70]
74 | Cc1ncsc1-c1ccc([C@H](C)NC(=O)[C@@H]2C[C@@H](O)CN2C(=O)[C@@H](NC(=O)CN2CCN(c3cc(-c4ccccc4N)nnc3N)CC2)C(C)(C)C)cc1 [Compound 93]

Tested on: NCI-H929 cells
Assay: Anti proliferative activity in NCI-H929 cell line by Cell Titer Glo assay
Type: cell-based
Settings: Homo sapiens, 72 h, 3 days compound incubation, CellTiter Glo, read-out: Anti-proliferative activity IC50 group (NCI-H929 cells)
Protocol: Determination of Anti Proliferative Activity of Compounds in NCI-H929 and NCI-H838 Cell Lines by Cell Titer Glo® (promega) assay:
NCI-H929 (ATCC CRL-9068) or NCI-H838 (ATCC CRL-5844) cells were seeded in 96 well plate flat black clear bottom plates (Corning, Cat. No 3904) using complete RPMI-1640 media. Next day, compounds listed in the present invention were added to cells from 10 mM stocks made in DMSO (Sigma Cat no. D2650). Each concentration of compound was tested in triplicate with DMSO concentration at a final percentage not exceeding 0.3 in the cells. After the compound incubation (3 days for H929 and 8 days for H838) assay was terminated using 50 μl of CellTiter Glo® reagent (Promega, Cat. no G7572). CellTiter Glo® Luminescent reagent determines the number of viable cells based on quantitation of ATP present which is an indicator of cell number and metabolic activity. Luminescence readings were taken in Victor-3 instrument. Percent inhibition of proliferation was calculated using formula, % inhibition=100−(luminescence value of test/luminescence value of DMSO control)*100. DMSO control (0%)=Cells in complete media with DMSO; blank=Media alone containing DMSO. IC50 was calculated using graph pad prism software.
Herein group “A” refers to IC50 value lower than 1 μM, “B” refers to IC50 value between 1-10 μM (both inclusive) and “C” refers to IC50 value higher than 10 μM or less than 50% activity at 10 μM.

Compound | IC50 [µM]
COC(=O)c1cc(N2CCN(CC(=O)N[C@H](C(=O)N3C[C@H](O)C[C@H]3C(=O)N[C@@H](C)c3ccc(-c4scnc4C)cc3)C(C)(C)C)CC2)c(N)nn1 [Compound 72, methyl 6-amino-5-(4-(2-(((S)-1-((2S,4R)-4-hydroxy-2-(((S)-1-(4-(4-methylthiazol-5-yl)phenyl)ethyl)carbamoyl)pyrrolidin-1-yl)-3,3-dimethyl-1-oxobutan-2-yl)amino)-2-oxoethyl)piperazin-1-yl)pyridazine-3-carboxylate] | > 10
Cc1ncsc1-c1ccc([C@H](C)NC(=O)[C@@H]2C[C@@H](O)CN2C(=O)[C@@H](NC(=O)CN2CCN(c3cc(C(=O)O)nnc3N)CC2)C(C)(C)C)cc1 [Compound 73, 6-amino-5-(4-(2-(((S)-1-((2S,4R)-4-hydroxy-2-(((S)-1-(4-(4-methylthiazol-5-yl)phenyl)ethyl)carbamoyl)pyrrolidin-1-yl)-3,3-dimethyl-1-oxobutan-2-yl)amino)-2-oxoethyl)piperazin-1-yl)pyridazine-3-carboxylic acid] | > 10
Cc1ncsc1-c1ccc([C@H](C)NC(=O)[C@@H]2C[C@@H](O)CN2C(=O)[C@@H](NC(=O)CC2CCN(c3cc(-c4ccccc4F)nnc3N)CC2)C(C)(C)C)cc1 [Compound 97] | 1 to 10
Cc1ncsc1-c1ccc([C@H](C)NC(=O)[C@@H]2C[C@@H](O)CN2C(=O)[C@@H](NC(=O)CC2CN(c3cc(-c4ccccc4O)nnc3N)C2)C(C)(C)C)cc1 [Compound 104] | 1 to 10

More lines, now with the values ahead:

IC50 [µM] | Compound
> 10 | Cc1ncsc1-c1ccc([C@H](C)NC(=O)[C@@H]2C[C@@H](O)CN2C(=O)[C@@H](NC(=O)CN2CCN(c3cc(-c4ccccc4Cl)nnc3N)CC2)C(C)(C)C)cc1 [Compound 89]
1 to 10 | Cc1ncsc1-c1ccc(CNC(=O)[C@@H]2C[C@H](O)CN2C(=O)[C@@H](NC(=O)CN2CCN(c3cc(-c4ccccc4O)nnc3N)CC2)C(C)(C)C)cc1 [Compound 105]
1 to 10 | Cc1ncsc1-c1ccc([C@H](C)NC(=O)[C@@H]2C[C@H](O)CN2C(=O)[C@@H](NC(=O)CN2CCN(c3cc(-c4ccccc4O)nnc3N)CC2)C(C)(C)C)cc1 [Compound 106]
1 to 10 | Cc1ncsc1-c1ccc([C@H](C)NC(=O)[C@@H]2C[C@@H](F)CN2C(=O)[C@@H](NC(=O)CN2CCN(c3cc(-c4ccccc4O)nnc3N)CC2)C(C)(C)C)cc1 [Compound 107]
< 1 | Cc1ncsc1-c1ccc([C@H](C)NC(=O)[C@@H]2C[C@@H](O)CN2C(=O)[C@@H](NC(=O)CCCCC(=O)N2CCN(c3cc(-c4ccccc4O)nnc3N)CC2)C(C)(C)C)cc1 [Compound 110]
< 1 | Cc1ncsc1-c1ccc([C@H](C)NC(=O)[C@@H]2C[C@@H](O)CN2C(=O)[C@@H](NC(=O)CCCCCCCC(=O)N2CCN(c3cc(-c4ccccc4O)nnc3N)CC2)C(C)(C)C)cc1 [Compound 111]
< 1 | Cc1ncsc1-c1ccc([C@H](C)NC(=O)[C@@H]2C[C@@H](O)CN2C(=O)[C@@H](NC(=O)CCCCCC(=O)N2CCN(c3cc(-c4ccccc4O)nnc3N)CC2)C(C)(C)C)cc1 [Compound 112]
1 to 10 | Cc1ncsc1-c1ccc([C@H](C)NC(=O)[C@@H]2C[C@@H](O)CN2C(=O)[C@@H](NC(=O)CCCCCNC(=O)C2CCN(c3cc(-c4ccccc4O)nnc3N)CC2)C(C)(C)C)cc1 [Compound 113]
> 10 | Cc1ncsc1-c1ccc([C@H](C)NC(=O)[C@@H]2C[C@@H](O)CN2C(=O)[C@@H](NC(=O)CCCC(=O)N2CCN(c3cc(-c4ccccc4O)nnc3N)CC2)C(C)(C)C)cc1 [Compound 114]
1 to 10 | Cc1ncsc1-c1ccc([C@H](C)NC(=O)[C@@H]2C[C@H](O)CN2C(=O)[C@@H](NC(=O)CCCCCCC(=O)N2CCN(c3cc(-c4ccccc4O)nnc3N)CC2)C(C)(C)C)cc1 [Compound 115]
